The record followed here is patent US20240261348A1, “LACTOBACILLUS PLANTARUM-DERIVED VESICLE AND USE THEREOF” (priority 2021, published 2024).

This experiment deals with AMPK (pAMPK) in muscle cells (L6 myotube cells). Briefly: AMPK activation in muscle cells (pAMPK western blotting). Format: cell-based. The procedure:
Therefore, an experiment was conducted to evaluate whether Lactobacillus plantarum-derived vesicles (Lp EV) affect cellular aging through AMPK activation in cells. To evaluate AMPK activation according to a concentration of treated Lactobacillus plantarum-derived vesicles in vitro, muscle cells (L6 myotube cells) were treated with the Lactobacillus plantarum-derived vesicles at 0, 0.1, 1, or 10 μg/mL for 1 hour. As a control, insulin (1 μM), which promotes aging and metformin (50 mM), which inhibits aging were used. After treating the cells with the drug, the difference in the amount of pAMPK, which is a key indicator in AMPK signaling, was measured through western blotting. […] To perform BCA quantitative analysis, the 1.5 mL microtube containing 5 μL of the lysed sample supernatant was taken out at room temperature, 20 μL of sterile distilled water was added thereto, and the resulting solution was vortexed and then spun down. […] After reacting in a 37° C. incubator for 30 minutes, absorbance was measured at 562 nm using a SpectraMax M3 microplate reader (Molecular Devices, USA). For western blotting, in the process of tris-glycine SDS-polyacrylamide gel electrophoresis, a 10% gel was prepared, and 50 μg of a protein for each sample was quantified and loaded. […]

Turning to `CN(C)C(=N)N=C(N)N` [metformin], the “phosphorylation of AMPK (pAMPK)” value (metformin 50 mM for 1 hour (FIG. 8)) is “increased”.

For insulin, the “phosphorylation of AMPK (pAMPK)” value (insulin 1 μM for 1 hour (FIG. 8)) is listed as “inhibited”.
